In US9765058B2, “Substituted benzylpyrazoles” (BAYER PHARMA AKTIENGESELLSCHAFT, priority 2013, dated 2017):
Like-named read-outs stand apart in the source and are kept apart here.

Key:
[1] = target: catalytic domain of human Bub1 (amino acids 704-1085) (Homo sapiens (Human), UniProt O43683); experiment: Bub1 kinase assay (TR-FRET); format: biochemical; conditions: read-out: Biological Assay 1: Bub1 kinase assay median IC50
Method: The stopped reaction mixture was further incubated 1 h at 22° C. in order to allow the formation of complexes between peptides and detection reagents. Subsequently, the amount of product was evaluated by measurement of the resonance energy transfer from the Eu-chelate-antibody complex recognizing the Phosphoserine residue to the streptavidin-XL665 bound to the biotin moiety of the peptide. […] IC50 values were calculated by fitting the normalized inhibition data to a 4-parameter logistic equation (Minimum, Maximum, IC50, Hill; Y=Max+(Min−Max)/(1+(X/IC50)Hill)).

[2] = test system: HeLa cell line; experiment: Proliferation assay (crystal violet); conditions: Homo sapiens, 96 h, read-out: Biological Assay 2: Proliferation assay (HeLa cell line) median IC50
Method: Cultivated tumor cells (cells were ordered from ATCC, except HeLa-MaTu and HeLa-MaTu-ADR, which were ordered from EPO-GmbH, Berlin) were plated at a density of 1000 to 5000 cells/well, depending on the growth rate of the respective cell line, in a 96-well multititer plate in 200 μL of their respective growth medium supplemented 10% fetal calf serum. After 24 hours, the cells of one plate (zero-point plate) were stained with crystal violet (see below), while the medium of the other plates was replaced by fresh culture medium (200 μL), to which the test substances were added in various concentrations (0 μM, as well as in the range of 0.001-10 μM; the final concentration of the solvent dimethyl sulfoxide was 0.5%). The cells were incubated for 4 days in the presence of test substances. Cell proliferation was determined by staining the cells with crystal violet: the cells were fixed by adding 20 μL/measuring point of an 11% glutaric aldehyde solution for 15 minutes at room temperature. After three washing cycles of the fixed cells with water, the plates were dried at room temperature. The cells were stained by adding 100 μL/measuring point of a 0.1% crystal violet solution (pH 3.0). After three washing cycles of the stained cells with water, the plates were dried at room temperature. The dye was dissolved by adding 100 μl/measuring point of a 10% acetic acid solution. Absorbtion was determined by photometry at a wavelength of 595 nm. The change of cell number, in percent, was calculated by normalization of the measured values to the absorbtion values of the zero-point plate (=0%) and the absorbtion of the untreated (0 μm) cells (=100%). The IC50 values were determined by means of a 4 parameter fit.

[3] = TR-FRET, 10 μM ATP, 1 μM peptide substrate

SMILES | IC50 [1, 3] | IC50 [2] | IC50 [1]
CCOc1cc(F)c(Cn2cc(Cl)c(-c3ncc(OC)c(Nc4ccncc4)n3)n2)c(F)c1 [Example 2-2-5, 2-[4-chloro-1-(4-ethoxy-2,6-difluorobenzyl)-1H-pyrazol-3-yl]-5-methoxy-N-(pyridin-4-yl)pyrimidin-4-amine] | 33 nM | 6800 nM | 
CCOc1cc(F)c(Cn2nc(-c3nccc(Nc4ccncc4C(=O)O)n3)c(Cl)c2C2CC2)c(F)c1 [Example 2-3-1, 4-({2-[4-chloro-5-cyclopropyl-1-(4-ethoxy-2,6-difluorobenzyl)-1H-pyrazol-3-yl]pyrimidin-4-yl}amino)nicotinic acid] |  |  | 11 nM
CCOc1cc(F)c(Cn2nc(-c3nccc(Nc4ccncc4C(=O)NC)n3)c(Cl)c2C2CC2)c(F)c1 [Example 2-1-1, 4-({2-[4-chloro-5-cyclopropyl-1-(4-ethoxy-2,6-difluorobenzyl)-1H-pyrazol-3-yl]pyrimidin-4-yl}amino)-N-methylnicotinamide] | 4.7 nM | > 10000 nM | 
CCOc1cc(F)c(Cn2nc(-c3ncc(OC)c(Nc4ccncc4)n3)c(Br)c2C)c(F)c1 [Example 2-2-4, 2-[4-bromo-1-(4-ethoxy-2,6-difluorobenzyl)-5-methyl-1H-pyrazol-3-yl]-5-methoxy-N-(pyridin-4-yl)pyrimidin-4-amine] | 24 nM | 3300 nM | 
CCOc1cc(F)c(Cn2nc(-c3ncc(OC)c(Nc4ccncc4)n3)c(C#N)c2C)c(F)c1 [Example 2-2-8, 1-(4-ethoxy-2,6-difluorobenzyl)-3-[5-methoxy-4-(pyridin-4-ylamino)pyrimidin-2-yl]-5-methyl-1H-pyrazole-4-carbonitrile] | 3200 nM |  | 
CCOc1cc(F)c(Cn2nc(-c3ncc(OC)c(Nc4ccncc4)n3)c(Cl)c2C)c(F)c1 [Example 2-2-3, 2-[4-chloro-1-(4-ethoxy-2,6-difluorobenzyl)-5-methyl-1H-pyrazol-3-yl]-5-methoxy-N-(pyridin-4-yl)pyrimidin-4-amine] | 10 nM | 3800 nM | 
CCOc1cc(F)c(Cn2nc(-c3ncc(OC)c(Nc4ccncc4C(=O)NC)n3)c(F)c2C)c(F)c1 [Example 2-4-4, 4-({2-[1-(4-ethoxy-2,6-difluorobenzyl)-4-fluoro-5-methyl-1H-pyrazol-3-yl]-5-methoxypyrimidin-4-yl}amino)-N-methylnicotinamide] | 10 nM | > 10000 nM | 
CCOc1cc(F)c(Cn2cc(N(C)C)c(-c3ncc(OC)c(Nc4ccncc4)n3)n2)c(F)c1 [Example 2-2-10, 2-[4-(dimethylamino)-1-(4-ethoxy-2,6-difluorobenzyl)-1H-pyrazol-3-yl]-5-methoxy-N-(pyridin-4-yl)pyrimidin-4-amine] | 250 nM | > 10000 nM | 
CCOc1cc(F)c(Cn2nc(-c3ncc(OC)c(Nc4ccncc4)n3)c(C)c2C#N)c(F)c1 [Example 2-2-12, 1-(4-ethoxy-2,6-difluorobenzyl)-3-[5-methoxy-4-(pyridin-4-ylamino)pyrimidin-2-yl]-4-methyl-1H-pyrazole-5-carbonitrile] | 100 nM | > 10000 nM | 
CCOC(=O)c1cnccc1Nc1nc(-c2nn(Cc3c(F)cc(OCC)cc3F)c(C)c2F)ncc1OC [Example 2-2-9, ethyl 4-({2-[1-(4-ethoxy-2,6-difluorobenzyl)-4-fluoro-5-methyl-1H-pyrazol-3-yl]-5-methoxypyrimidin-4-yl}amino)nicotinate] | 40 nM |  | 
CCOc1cc(F)c(Cn2nc(-c3nccc(Nc4ccncc4C(=O)NCCO)n3)c(Cl)c2C2CC2)c(F)c1 [Example 2-4-1, 4-({2-[4-chloro-5-cyclopropyl-1-(4-ethoxy-2,6-difluorobenzyl)-1H-pyrazol-3-yl]pyrimidin-4-yl}amino)-N-(2-hydroxyethyl)nicotinamide] |  | > 10000 nM | 54 nM
CCOC(=O)c1cnccc1Nc1ccnc(-c2nn(Cc3c(F)cc(OCC)cc3F)c(C3CC3)c2Cl)n1 [Example 2-2-2, ethyl 4-({2-[4-chloro-5-cyclopropyl-1-(4-ethoxy-2,6-difluorobenzyl)-1H-pyrazol-3-yl]pyrimidin-4-yl}amino)nicotinate] | 37 nM | 9200 nM | 
CCOc1cc(F)c(Cn2cc(Cl)c(-c3ncc(OC)c(Nc4ccncc4C(=O)NC)n3)n2)c(F)c1 [Example 2-4-2, 4-({2-[4-chloro-1-(4-ethoxy-2,6-difluorobenzyl)-1H-pyrazol-3-yl]-5-methoxypyrimidin-4-yl}amino)-N-methylnicotinamide] | 13 nM | > 10000 nM | 
CCOc1cc(F)c(Cn2nc(-c3ncc(OC)c(Nc4ccncc4)n3)c(C)c2Br)c(F)c1 [Example 2-2-11, 2-[5-bromo-1-(4-ethoxy-2,6-difluorobenzyl)-4-methyl-1H-pyrazol-3-yl]-5-methoxy-N-(pyridin-4-yl)pyrimidin-4-amine] | 13 nM | 1300 nM | 
CCOc1cc(F)c(Cn2nc(-c3ncc(OC)c(Nc4ccncc4C(N)=O)n3)c(F)c2C)c(F)c1 [Example 2-4-5, 4-({2-[1-(4-ethoxy-2,6-difluorobenzyl)-4-fluoro-5-methyl-1H-pyrazol-3-yl]-5-methoxypyrimidin-4-yl}amino)pyridine-3-carboxamide] | 11 nM | > 10000 nM | 
CCOc1cc(F)c(Cn2cc(Cl)c(-c3ncc(OC)c(Nc4ccncc4C(N)=O)n3)n2)c(F)c1 [Example 2-4-3, 4-({2-[4-chloro-1-(4-ethoxy-2,6-difluorobenzyl)-1H-pyrazol-3-yl]-5-methoxypyrimidin-4-yl}amino)nicotinamide] | 7.4 nM | > 10000 nM | 
CCOc1cc(F)c(Cn2nc(-c3ncc(OC)c(Nc4ccncc4)n3)c(F)c2C)c(F)c1 [Example 2-2-6, 2-[1-(4-ethoxy-2,6-difluorobenzyl)-4-fluoro-5-methyl-1H-pyrazol-3-yl]-5-methoxy-N-(pyridin-4-yl)pyrimidin-4-amine] | 41 nM | 4500 nM | 
CCOc1cc(F)c(Cn2nc(-c3nccc(Nc4ccncc4C(N)=O)n3)c(Cl)c2C2CC2)c(F)c1 [Example 2-1-2, 4-({2-[4-chloro-5-cyclopropyl-1-(4-ethoxy-2,6-difluorobenzyl)-1H-pyrazol-3-yl]pyrimidin-4-yl}amino)nicotinamide] | 8.1 nM | 8600 nM | 
CCOc1cc(F)c(Cn2nc(-c3nccc(Nc4ccncc4)n3)c(Cl)c2C2CC2)c(F)c1 [Example 2-2-1, 2-[4-chloro-5-cyclopropyl-1-(4-ethoxy-2,6-difluorobenzyl)-1H-pyrazol-3-yl]-N-(pyridin-4-yl)pyrimidin-4-amine] |  | 8800 nM | 5.6 nM
